Measured values published in patent US20240285631A1, “METHODS OF TREATING VASCULAR MALFORMATIONS” (priority 2023, published 2024).

System: human umbilical vein endothelial cells
Assay: Proliferation of human umbilical vein endothelial cells assessed by EdU uptake
Assay type: cell-based
Details: in vitro, dose response
Excerpt: FIG. 16 illustrates palbociclib, CVT-313 and ribociclib dose response effects on proliferation of human umbilical vein endothelial cells assessed by EdU uptake.
This example discusses that endothelial cell cycle dysregulation is a mechanism involved in the development of arterio-venous malformations in HHT, as well as other types of vascular malformations named above. Palbociclib, a FDA-approved cell cycle inhibitor, could be used to prevent arterio-venous and other malformations, including venous, capillary, lymphatic and cerebral cavernous malformations.

Structure (SMILES)	EC proliferation assessed by EdU uptake
CN(C)C(=O)c1cc2cnc(Nc3ccc(N4CCNCC4)cn3)nc2n1C1CCCC1 [Ribociclib, 7-cyclopentyl-N,N-dimethyl-2-[(5-piperazin-1-ylpyridin-2-yl)amino]pyrrolo[2,3-d]pyrimidine-6-carboxamide]	inhibit EC proliferation
COc1ccc(CNc2nc(N(CCO)CCO)nc3c2ncn3C(C)C)cc1 [CVT-313, 2-[2-hydroxyethyl-[6-[(4-methoxyphenyl)methylamino]-9-propan-2-ylpurin-2-yl]amino]ethanol]	inhibit EC proliferation
